Data on one compound can be found in US9796753B2, “N-substituted indenoisoquinolines and syntheses thereof” (Purdue Research Foundation, priority 2005, dated 2017).

Where only a bound is given, the exact number is not on record here.

One data set has as its system CNS SF-539. Briefly: COMPARE screening (NCI human cancer cell line screen), cytotoxicity GI50. The format is cell-based. To be noted: Homo sapiens, CNSSF-539, 48 h, read-out: Cytotoxicity (GI50) CNS SF-539. The procedure, abridged:
(§1)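 Cells of the NCI60 panel were exposed to compound at 100, 10, 1, 0.1 and 0.01 μM for 48 h, then stained with sulforhodamine B. Optical density relative to control was plotted as percentage growth versus log10 concentration.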

In the next data set the test system is colon HCT-116. Described as above. The data set is classed as cell-based. The note with it: Homo sapiens, HCT-116, 48 h, read-out: Cytotoxicity (GI50) Colon HCT-116. The procedure, abridged: as §1
The next data set has as its system lung HOP-62. The data set is described as above. The format is cell-based. To be noted: Homo sapiens, HOP-62, 48 h, read-out: Cytotoxicity (GI50) lung HOP-62. The gist of the method:
as §1

The test system of a further data set is melanoma UACC-62. The description is as above. The data set is classed as cell-based. To be noted: Homo sapiens, UACC-62, 48 h, read-out: Cytotoxicity (GI50) melanoma UACC-62. The gist of the method:
as §1

For the next data set, the system named is ovarian OVCAR-3. The description is as above. The format is cell-based. The note with it: Homo sapiens, OVCAR-3, 48 h, read-out: Cytotoxicity (GI50) Ovarian OVCAR-3. The gist of the method:
as §1

Another data set has as its system prostate DU-145. The description is as above. The data set is classed as cell-based. To be noted: Homo sapiens, DU-145, 48 h, read-out: Cytotoxicity (GI50) prostate DU-145. The gist of the method: as §1
The test system of the next data set is renal SN12C. The data set is described as above. The format is cell-based. To be noted: Homo sapiens, SN12C, 48 h, read-out: Cytotoxicity (GI50) renal SN12C. The gist of the method:
as §1

Data set [1] relates to all human cancer cell lines successfully tested. Description: NCI screen mean graph midpoint (MGM) for growth inhibition. The data set is classed as cell-based. The note with it: Table 6. The procedure, abridged: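 NCI60 panel cells exposed to compound at 100, 10, 1, 0.1 and 0.01 μM for 48 h, then sulforhodamine B staining. Percentage growth versus control plotted against log concentration; MGM is the midpoint across all lines tested.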

The next data set deals with T1, Human recombinant Top1 (Homo sapiens, UniProt P11387).
T1 construct: made in house
T1 sequence (P11387 1-765): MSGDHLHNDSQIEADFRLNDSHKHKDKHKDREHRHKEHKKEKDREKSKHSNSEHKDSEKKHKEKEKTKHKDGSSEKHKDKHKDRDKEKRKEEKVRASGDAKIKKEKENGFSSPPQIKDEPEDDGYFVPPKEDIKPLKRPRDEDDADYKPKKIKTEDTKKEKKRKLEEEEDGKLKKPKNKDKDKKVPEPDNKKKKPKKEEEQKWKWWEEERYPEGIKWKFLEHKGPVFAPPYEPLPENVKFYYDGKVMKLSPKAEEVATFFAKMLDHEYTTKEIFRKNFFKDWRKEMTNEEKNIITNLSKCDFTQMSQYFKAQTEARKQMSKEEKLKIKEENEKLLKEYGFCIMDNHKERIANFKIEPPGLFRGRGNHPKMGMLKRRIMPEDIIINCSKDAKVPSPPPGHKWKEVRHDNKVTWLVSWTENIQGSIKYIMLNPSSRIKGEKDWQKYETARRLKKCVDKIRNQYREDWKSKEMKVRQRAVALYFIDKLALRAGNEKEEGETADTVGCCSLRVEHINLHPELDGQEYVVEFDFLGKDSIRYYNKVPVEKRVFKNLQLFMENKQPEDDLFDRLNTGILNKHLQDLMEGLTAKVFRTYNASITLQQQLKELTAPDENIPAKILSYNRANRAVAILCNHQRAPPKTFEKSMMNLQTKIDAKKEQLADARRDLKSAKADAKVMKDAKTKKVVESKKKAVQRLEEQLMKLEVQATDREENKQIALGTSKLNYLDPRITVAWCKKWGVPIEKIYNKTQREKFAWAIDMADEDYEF
Briefly: Topoisomerase 1-mediated DNA cleavage reactions (B), 117-bp DNA oligonucleotide. The data set is classed as biochemical. Set-up: key to Top1 (compound-induced DNA cleavage due to Top1 inhibition): 0, no detectable activity; +, weak activity; ++, similar activity to compound 5; +++, greater activity than 34; ++++ , equipotent to 32; The (+) ranking indicates the activity lies between two given values. To be noted: Table 5. The protocol: Human recombinant Top1 was purified from baculovirus as described in Bailly, C. Curr. Med. Chem. 2000, 7, 39-58. DNA cleavage reactions were prepared as previously reported with the exception of the DNA substrate in Saltz, et al. Oncologist 1997, 2, 402-409.
Approximately 2 nM radiolabeled DNA substrate was incubated with recombinant Top1 in 20 μL of reaction buffer [10 mM Tris-HCl (pH 7.5), 50 mM KCl, 5 mM MgCl2, 0.1 mM EDTA, and 15 μg/mL BSA] at 25° C. for 20 min in the presence of various concentrations of compounds. […] Aliquots of each reaction mixture were subjected to 20% denaturing PAGE. Gels were dried and visualized using a phosphoimager and ImageQuant software (Molecular Dynamics).
All of the new indenoisoquinoline derivatives with C-2 side chains were tested in Top1-mediated DNA cleavage assays. For this purpose, a ^32P 3′-end labeled 117-bp DNA fragment was incubated with Top1 and four 10-fold dilutions starting from 100 μM of a tested compound. The DNA fragments were separated on 20% PAGE denaturing gels. The Top1 inhibitory activities were assigned on the basis of the visual inspection of the number and intensities of the gel bands corresponding to Top1-mediated DNA cleavage fragments. […] Ambiguous scores (e.g., between two values) are designated with parentheses (e.g., ++(+) would be between ++ and +++).

The next data set has as its target recombinant TDP1 (Homo sapiens, UniProt Q9NUW8). Briefly: Gel-based assay measuring the inhibition of recombinant TDP1. The data set is classed as biochemical.
In the next data set the test system is breast MCF-7. Description: NCI60 antiproliferative activity, cytotoxicity GI50. The format is cell-based, human. To be noted: Homo sapiens, MCF7, 48 h, read-out: Cytotoxicity (GI50) breast MCF-7. The protocol: Selected compounds were tested for antiproliferative activity in the National Cancer Institute's developmental therapeutics assay 60 cell line screen (NCI60). The cells were incubated with the tested compounds at 100, 10, 1, 0.1, and 0.01 μM concentrations for 48 h before treatment with sulforhodamine B dye. Optical densities were recorded, and their ratios relative to that of the control were plotted as percentage growth against the log 10 of the tested compound concentrations.

Sequence of recombinant TDP1 (Q9NUW8 whole entry): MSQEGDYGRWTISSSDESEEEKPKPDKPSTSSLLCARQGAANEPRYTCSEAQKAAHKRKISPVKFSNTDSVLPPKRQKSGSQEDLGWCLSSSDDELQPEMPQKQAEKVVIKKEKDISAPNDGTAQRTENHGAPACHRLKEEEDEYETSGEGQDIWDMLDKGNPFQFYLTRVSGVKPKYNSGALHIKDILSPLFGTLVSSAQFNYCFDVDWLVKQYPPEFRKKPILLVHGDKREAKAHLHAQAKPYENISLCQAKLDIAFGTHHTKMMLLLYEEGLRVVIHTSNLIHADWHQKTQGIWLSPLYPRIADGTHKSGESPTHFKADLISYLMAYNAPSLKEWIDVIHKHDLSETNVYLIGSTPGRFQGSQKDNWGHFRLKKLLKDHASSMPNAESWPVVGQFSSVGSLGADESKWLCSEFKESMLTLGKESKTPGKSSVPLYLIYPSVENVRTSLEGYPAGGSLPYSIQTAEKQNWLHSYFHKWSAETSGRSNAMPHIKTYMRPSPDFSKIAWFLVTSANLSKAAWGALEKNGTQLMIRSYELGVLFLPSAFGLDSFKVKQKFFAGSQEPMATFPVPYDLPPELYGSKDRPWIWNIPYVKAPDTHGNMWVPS

For `C=CCOc1cc2c3c(n(CCCN4CCOCC4)c(=O)c2cc1OC)-c1cc2c(cc1C3=O)OCO2` [Compound 20, 2-(Allyloxy)-3-methoxy-6-(3-morpholinopropyl)-5H-[1,3]dioxolo[4′,5′:5,6]indeno [1,2-c]isoquinoline-5,12(6H)-dione], the melting point was 199 to 200 °C (dec.). For the same compound, in the data set on CNS SF-539, the concentration for 50% growth inhibition (GI50) was 0.01 µM. In the data set on colon HCT-116, the 50% growth inhibitory concentration (GI50) turned out to be 0.01 µM. Moreover, in the data set on lung HOP-62, the GI50 was less than 0.01 µM. For the same compound, in the data set with melanoma UACC-62, the GI50 is less than 0.01 µM. Moreover, in the data set with ovarian OVCAR-3, the 50% growth inhibitory concentration (GI50) was found to be 0.3 µM. Further, in the data set on prostate DU-145, the GI50 is less than 0.01 µM. Besides, in the data set with renal SN12C, the GI50 was less than 0.01 µM. The “GI50's against various cell lines (in words)” value in data set [1] (NCI60 cell lines) is reported as “submicromolar”. Also, in data set [1] (all human cancer cell lines successfully tested, range 10^−8 to 10^−4 molar, with standard error), the MGM (mean GI50 across cell lines) was determined as 0.1 ± 0.035 µM. Further, the “Top1 inhibitory activity (level)” value at Human recombinant Top1 (relative to compounds 32 and 33) is given as “+ or ++”. Moreover, at Human recombinant Top1 (semiquantitative scale relative to 1 μM camptothecin (32) or MJ-III-65 (34)), the “Top1 (compound-induced DNA cleavage due to Top1 inhibition)” value was “+”. Also, the “TDP1 inhibitory activity (in words)” value at recombinant TDP1 is “no detectable TDP1 inhibitory activity”. For the same compound, the IC50 at recombinant TDP1 (Table 5, determined in duplicate, read-out: TDP1 (IC50, semiquantitative scale)) was more than 111 µM. In the data set on breast MCF-7, the concentration for 50% growth inhibition (GI50) is less than 0.01 µM.
